According to patent publication US5880128A, “Carbonyl piperazinyl and piperidinyl compounds” (Schering Corporation, priority 1996, dated 1999):

Target: farnesyl protein transferase (FPT)
Assay: In vitro enzyme assay: inhibition of farnesyl protein transferase (FPT, FTase)
Type: biochemical, rat; human
Conditions: concentration of compound which inhibits 50% of FPT transferase
Text: 1. In vitro enzyme assays: Inhibition of farnesyl protein transferase and geranylgeranyl protein transferase.
Both farnesyl protein transferase (FPT) and geranylgeranyl protein transferase (GGPT) I are partially purified from rat brain by ammonium sulfate fractionation followed by Q-Sepharose (Pharmacia, Inc.) anion exchange chromatography essentially as described by Yokoyama et al (Yokoyama, K., et al., (1991), A protein geranylgeranyltransferase from bovine brain: Implications for protein prenylation specificity, Proc. Natl. Acad. Sci USA 88: 5302-5306, the disclosure of which is incorporated herein by reference thereto). Human farnesyl protein transferase is also expressed in E. coli, using cDNA clones encoding both the α and β subunits. The methods used are similar to those published (Omer, C. et al., (1993), Characterization of recombinant human farnesyl protein transferase: Cloning, expression, farnesyl diphosphate binding, and functional homology with yeast prenyl-protein transferases, Biochemistry 32:5167-5176). Human farnesyl protein transferase is partially-purified from the soluble protein fraction of E. coli as described above. The farnesyl protein transferase inhibitors disclosed herein may inhibit both human and rat enzyme with similar potencies. Two forms of val^12 -Ha-Ras protein are prepared as substrates for these enzymes, differing in their carboxy terminal sequence. One form terminates in cysteine-valine-leucine-serine (Ras-CVLS) the other in cystein-valine-leucine-leucine (Ras-CVLL). Ras-CVLS is a substrate for the farnesyl protein transferase while Ras-CVLL is a substrate for geranylgeranyl protein transferase I. The cDNAs encoding these proteins are constructed so that the proteins contain an amino-terminal extension of 6 histidine residues. Both proteins are expressed in Escherichia coli and purified using metal chelate affinity chromatography. The radiolabelled isoprenyl pyrophosphate substrates, [^3 H]farnesyl pyrophosphate and [^3 H]geranylgeranyl pyrophosphate, are purchased from a commercial source, such as DuPont/New England Nuclear.
Several methods for measuring farnesyl protein transferase activity are known (Reiss et al 1990, Cell 62: 81; Schaber et al 1990, J. Biol. Chem. 265: 14701; Manne et al 1990, PNAS 8: 7541; and Barbacid & Manne 1993, U.S. Pat. No. 5,185,248). […] Filter mats are washed once with 6% TCA, 2% SDS and radioactivity is measured in a Wallac 1204 Betaplate BS liquid scintillation counter. Percent inhibition is calculated relative to the DMSO vehicle control. […]

IC50 [µM]	Compound
60	O=C(c1ccc(Cl)cc1)C1CCN(C(=O)Cc2ccncc2)CC1
> 60	O=C(c1ccccc1)C1CCN(C(=O)Cc2ccncc2)CC1
12.1	Cc1c(C)c(C)c(C(=O)C2CCN(C(=O)Cc3ccncc3)CC2)c(C)c1C
> 60	O=C(c1ccc(F)cc1)C1CCN(C(=O)Cc2ccncc2)CC1
